Results published in publication PMC6152131, “Pharmacokinetic Study of Biotransformation Products from an Anxiolytic Fraction of Tilia americana” (Molecules : A Journal of Synthetic Chemistry and Natural …, 2017).

Columns and labels:
[1] = Pharmacokinetic analysis, two-compartment model (PKSolver); format: in vivo, ICR mice
Procedure: The data shown in Table 2 were applied to the program PKSolver. After a single oral administration of 200 mg/kg of the anxiolitic fraction of T. americana, the behavior of the concentration-time data allowed us to determine the main pharmacokinetic parameters under a two-compartment model (Table 3), and the same program provided the graphical behavior of the variables and the adjustment to the two-compartment model.
(§1) To evaluate the suitability of the assay for the pharmacokinetic studies, 200 mg/kg of the active fraction was orally administered to the animals. Ten animals were used in each group at different times (0, 5, 10, 15, 30, 60, 120, 240, 480, 720, and 1440 min). Pharmacokinetic calculations were performed using the observed data. All data was subsequently processed using the PKSolver add-in program for Microsoft Excel written in Visual Basic for Applications. All values obtained were expressed in mean ± standard deviation.
For the pharmacokinetic assay, the selection was made either from a one-compartment or a two-compartment model, with the use of both the Akaike information criterion (AIC) and the Schwarz criterion (SC). Using these two criteria, one can select which model is more suited to being adjusted, to the point where it reaches the lowest values of the AIC or SC criteria, which means that the chosen model is more parsimonious (less parameters required) and best fits the data (low error prediction).

[2] = Stability of flavonoids and biotransformation products in mouse plasma under different handling conditions; format: in vitro ADME, mice; settings: for Accuracy Bias 0 h / Observed Conc. 0 h / Accuracy Bias 8 h / Observed Conc. 8 h / Accuracy Bias 24 h / Observed Conc. 24 h: room temperature (25 °C); for Observed Conc. 0 h / Observed Conc. 8 h / Observed Conc. 24 h / Observed Conc. Autosampler (4 °C; 8 h) / Observed Conc. Long-term (−70 °C; 1 month): n = 6; for Accuracy Bias Autosampler (4 °C; 8 h) / Accuracy Bias Long-term (−70°C; 1 month) / Observed Conc. Autosampler (4 °C; 8 h) / Observed Conc. Long-term (−70 °C; 1 month): storage stability
Procedure: (§2) Plasma dried pulverized samples were extracted with methanol (HPLC grade, Merck). The extracts were filtered with Teflon membrane dimensions 0.45 μm by 13 mm (Millex®-LCR); 20 μL of each filtered sample was injected into the HPLC equipment. The measurements were performed in a (Waters corporation, Milford, CT, USA) 2695 HPLC with a diode array detector (Waters 2996) and processed with the Empower Pro 1.0 software. A Chromolith Performance® RP-18e 100 × 4.6 mm (Merck KGaA, Darmstadt, Germany) was used. The mobile phase consisted of a mixture of acetonitrile and water with the proportion 55:45 and a flow rate of 1 mL/min. The concentrations of the flavonoids and the biotransformation products were obtained by comparison with a pre-built calibration curve at λ = 220 nm.
[…] The investigation enclosed here expected manipulation conditions during all the sample storage and process periods, which included the stability data from the freeze/thaw, bench-top, autosampler, and long–term stability tests.
For all stability studies, fresh QC samples were evaluated by using a freshly prepared standard curve for the measurements. The concentrations obtained from all the stability studies were compared with the fresh QC samples, and the percentage concentration deviation was calculated. The analytes were considered stable in the mouse plasma when the concentration difference between the freshly prepared samples and the stability samples was less than 15%.

[3] = Plasma concentration after a single oral dose of the anxiolytic fraction (HPLC); format: in vivo, ICR mice; settings: mouse, plasma, ICR mice, n = 10
Procedure: Eleven groups of ten animals each were randomly formed. All animals were orally administered with 200 mg/kg of the active fraction. Animals were anaesthetized with ether, and blood samples were obtained from the retroorbital sinus with a heparinized capillary, each group was examined at different times (0, 5, 10, 15, 30, 60, 120, 240, 480, 720, and 1440 min) after the active fraction was administered. […] Then the plasma samples were frozen and lyophilized. The dry plasma was subsequently used to extract and measure the concentration of the flavonoids and biotransformation products.
as §2, §1

[4] = mouse, oral 200 mg/kg anxiolytic fraction, ICR mice plasma, two-compartment model
[5] = oral 200 mg/kg anxiolytic fraction, ICR mice plasma, two-compartment model
[6] = oral 200 mg/kg anxiolytic fraction, ICR mice plasma, two-compartment model, n = 10
[7] = high nominal conc. (7.00; 44.37; 4.50; 31.25 µg/mL)
[8] = low nominal conc. (1.75; 11.02; 1.12; 1.95 µg/mL)
[9] = medium nominal conc. (3.50; 22.18; 2.24; 7.81 µg/mL)

CL/F, times lower than m-HPAA ([1]; after oral administration): 30 times | CL/F, times lower than p-HPAA ([1]; after oral administration): 20 times | AUC(0-inf) [1, 4]: 3850 µg·h/mL | Cmax [1, 4]: 7180 ng/mL | Tmax [1, 4]: 0.215 h | AUC(0-t) ([1]; mouse, oral 200 mg/kg anxiolytic fraction, ICR mice plasma, two-compartment model, read-out: AUC0→1440 (converted)): 146 µg·h/mL | MRT ([1]; mouse, oral 200 mg/kg anxiolytic fraction, ICR mice plasma, two-compartment model, read-out: MRT (mean residence time) (converted)): 625 h | k el ([1]; mouse, oral 200 mg/kg anxiolytic fraction, ICR mice plasma, two-compartment model, read-out: k10 (apparent first-order elimination rate constant from the central compartment) (converted)): 5.3e-07 s⁻¹ | half-life ([1]; mouse, oral 200 mg/kg anxiolytic fraction, ICR mice plasma, two-compartment model, read-out: t1/2β): 434 h | CL/F (apparent clearance) [1, 5]: 0.0008 (mg/Kg)/(μg/mL)/min | V/F (apparent volume of distribution) [1, 5]: 27.21 (mg/Kg)/(µg/mL) | k12 (transfer rate constant central to peripheral compartment) [1, 5]: 0.002 min⁻¹ | k21 (transfer rate constant peripheral to central compartment) [1, 5]: 0.0096 min⁻¹ | ka (apparent first-order absorption rate constant) [1, 5]: 0.43 min⁻¹ | t1/2ka (absorption half time) [1, 5]: 1.61 min | t1/2α [1, 5]: 0.9992 h | α [1, 5]: 0.01 min⁻¹ | β [1, 5]: 2.66e-05 min⁻¹ | A (plasma concentration coefficient, central compartment) [1, 6]: 1.23 µg/mL | B (plasma concentration coefficient, peripheral compartment) [1, 6]: 6.16 µg/mL | index: relation between rate constants of k12 with respect to k21 ([1]; two-compartment model): 0.20 | Accuracy Bias 0 h ([2]; high nominal conc.): 0.26% | Observed Conc. 0 h ([2]; high nominal conc. (rutin 7.00; quercetin glucoside, quercitrin, tiliroside 44.37; kaempferol 4.50; m-HPAA, p-HPAA, DOPAC 31.25 µg/mL)): 31.61 ± 0.26 µg/mL | Accuracy Bias 0 h ([2]; low nominal conc.): 0.02% | Observed Conc. 0 h ([2]; low nominal conc. (rutin 1.75; quercetin glucoside, quercitrin, tiliroside 11.02; kaempferol 1.12; m-HPAA, p-HPAA, DOPAC 1.95 µg/mL)): 1.98 ± 0.020 µg/mL | Accuracy Bias 0 h ([2]; medium nominal conc.): 0.03% | Observed Conc. 0 h ([2]; medium nominal conc. (rutin 3.50; quercetin glucoside, quercitrin, tiliroside 22.18; kaempferol 2.24; m-HPAA, p-HPAA, DOPAC 7.81 µg/mL)): 7.85 ± 0.032 µg/mL | Accuracy Bias 8 h ([2]; high nominal conc.): 0.25% | Observed Conc. 8 h [2, 7]: 31.64 ± 0.24 µg/mL | Accuracy Bias 8 h ([2]; low nominal conc.): 0.03% | Observed Conc. 8 h [2, 8]: 1.92 ± 0.02 µg/mL | Accuracy Bias 8 h ([2]; medium nominal conc.): 0.03% | Observed Conc. 8 h [2, 9]: 7.86 ± 0.03 µg/mL | Accuracy Bias 24 h ([2]; high nominal conc.): 0.19% | Observed Conc. 24 h [2, 7]: 31.53 ± 0.19 µg/mL | Accuracy Bias 24 h ([2]; low nominal conc.): 0.03% | Observed Conc. 24 h [2, 8]: 1.91 ± 0.03 µg/mL | Accuracy Bias 24 h ([2]; medium nominal conc.): 0.02% | Observed Conc. 24 h [2, 9]: 7.78 ± 0.02 µg/mL | Accuracy Bias Autosampler (4 °C; 8 h) ([2]; high nominal conc.): 2.23% | Accuracy Bias Long-term (−70°C; 1 month) ([2]; high nominal conc.): 2.11% | Observed Conc. Autosampler (4 °C; 8 h) [2, 7]: 31.61 ± 0.19 µg/mL | Observed Conc. Long-term (−70 °C; 1 month) [2, 7]: 31.53 ± 0.25 µg/mL | Accuracy Bias Autosampler (4 °C; 8 h) ([2]; low nominal conc.): 0.88% | Accuracy Bias Long-term (−70°C; 1 month) ([2]; low nominal conc.): 1.15% | Observed Conc. Autosampler (4 °C; 8 h) [2, 8]: 1.91 ± 0.03 µg/mL | Observed Conc. Long-term (−70 °C; 1 month) [2, 8]: 1.99 ± 0.03 µg/mL | Accuracy Bias Autosampler (4 °C; 8 h) ([2]; medium nominal conc.): 0.38% | Accuracy Bias Long-term (−70°C; 1 month) ([2]; medium nominal conc.): 0.58% | Observed Conc. Autosampler (4 °C; 8 h) [2, 9]: 7.78 ± 0.02 µg/mL | Observed Conc. Long-term (−70 °C; 1 month) [2, 9]: 7.85 ± 0.03 µg/mL | concentration at 5 min ([3]; 5 min after single oral dose of 200 mg/kg of the anxiolytic fraction, ND = not detected): 6600 ± 430 ng/mL | concentration at 10 min ([3]; 10 min after single oral dose of 200 mg/kg of the anxiolytic fraction): 6430 ± 350 ng/mL | concentration at 15 min ([3]; 15 min after single oral dose of 200 mg/kg of the anxiolytic fraction): 7730 ± 610 ng/mL | concentration at 30 min ([3]; 30 min after single oral dose of 200 mg/kg of the anxiolytic fraction): 7170 ± 520 ng/mL | concentration at 60 min ([3]; 60 min after single oral dose of 200 mg/kg of the anxiolytic fraction): 6880 ± 430 ng/mL | concentration at 120 min ([3]; 120 min after single oral dose of 200 mg/kg of the anxiolytic fraction): 6340 ± 410 ng/mL | concentration at 240 min ([3]; 240 min after single oral dose of 200 mg/kg of the anxiolytic fraction): 6260 ± 320 ng/mL | concentration at 480 min ([3]; 480 min after single oral dose of 200 mg/kg of the anxiolytic fraction): 6100 ± 340 ng/mL | concentration at 720 min ([3]; 720 min after single oral dose of 200 mg/kg of the anxiolytic fraction): 6010 ± 540 ng/mL | concentration at 1440 min ([3]; 1440 min after single oral dose of 200 mg/kg of the anxiolytic fraction): 5930 ± 490 ng/mL
Structure (SMILES): O=C(O)Cc1ccc(O)c(O)c1 [DOPAC, 3,4-dihydroxyphenylacetic acid]
